“Also recorded” adds a separate entry of the source.
Columns and labels:
[1] = tested on: GAD1 and GAD11 genes; assay: RT-PCR expression of GAD1 and GAD11 genes in response to benzoic acid; type: cell-based, A. niger; conditions: 8 mM benzoic acid for 5 h
Description: Total RNA was extracted from uninduced and benzoic acid-induced A. niger mycelia as described earlier, and approximately 1 μg was used to synthesize first strand cDNAs with the SuperScript First-strand Synthesis System for RT-PCR (Invitrogen, Carlsbad, Calif.). The reaction was carried out in the presence of 0.5 μg of an oligo(dT) primer, 0.5 mM dNTP mix, 5 mM MgCl2, 10 mM DTT, 1× RT buffer (20 mM Tris.HCl pH 8.4, 50 mM KCl), RNAseOUT™ RNAse inhibitor, and 50 U of SuperScript™ II Reverse Transcriptase. Tubes were incubated at 42° C. for 50 min, after which the reaction was terminated at 70° C. for 15 min. RNAse H was added, and tubes were incubated for an additional 20 min at 37° C. Double-stranded cDNAs were amplified by PCR using Red Taq DNA Polymerase (Sigma-Aldrich, St. Louis, Mo.), dNTP's, and gene specific primers: GAD1F (5′-[…]-3′, SEQ ID NO:30), GAD1R (5′-[…]-3′, SEQ ID NO:31), GAD11F (5′-[…]-3′, SEQ ID NO:32), and GAD11R (5′-[…]-3′, SEQ ID NO:33). PCR amplification consisted of a denaturation step at 94° C. for 5 min, followed by 30 cycles, each of denaturation at 94° C. for 45 sec, annealing at 56° C. for 30 sec, and extension at 72° C. for 1 min. A final extension step at 72° C. for 10 min was also included. Amplified cDNAs were separated on a 0.8% agarose gel containing EtBr, and bands were visualized under UV light.

[2] = tested on: bphA gene promoter; assay: bphA promoter-GFP fusions, benzoic acid-dependent GFP expression; type: cell-based, Aspergillus nidulans strain GR5; conditions: 8 mM benzoic acid, 5 hours; full promoter (1.8 kbp) and FR6 (0.4 kbp)
Description: In order to determine the minimal promoter length capable of retaining benzoic acid inducibility, promoter fusions to the Green Fluorescent Protein (GFP) gene were prepared. The full bphA promoter and shorter versions of it were PCR amplified using primers BPHPFwd (5′-[…]-3′, SEQ ID NO:19), BPHFR6 (5′-[…]-3′, SEQ ID NO:20), BPH331 (5′-[…]-3′, SEQ ID NO:21), and BPHPRev (5′-[…]-3′, SEQ ID NO:22). These primers introduced HindIII restriction sites (underlined) at both ends, which allowed cloning of the fragments upstream of the GFP gene contained within the pEBFP vector (Clontech, Palo Alto, Calif.).
The promoter-GFP fusions were called pBPH-1847-GFP, pBPH-531-GFP, and pBPH331-GFP, respectively. The selectable marker Pyr4 gene from Neurospora crassa, driven by its own promoter, was used to select putative A. nidulans transformed clones. The selectable marker was PCR-amplified from the pBS-Pyr4 vector using primers PyrEcoF (5′-[…]-3′, SEQ ID NO:23), and PyrEcoR (5′-[…]-3′, SEQ ID NO:24), which introduced EcoRI restriction sites (underlined) on both ends of the product. […]
Aspergillus nidulans GR5 protoplasts were prepared according to Aramayo and Timberlake ((1993) EMBO J. 12: 2039-2048), with some modifications. […] Concentration of protoplasts was determined using a hemacytometer, and adjusted to 10^8 protoplasts per mL. […]

O=C(O)c1ccccc1 [benzoic acid]
expression of GAD1 [1]: expressed constitutively; also recorded: constitutive
expression of GAD11 [1]: slightly downregulated; also recorded: slightly down-regulated
GFP expression from bphA promoter-GFP fusions [2]: able to induce GFP expression only in the presence of the inducer
